According to patent US11865111B2, “Antiviral drugs targeting the N-terminal domain (NTD) of the coronavirus spike receptor binding domain (RBD)” (priority 2021, dated 2024):
Where two headings read alike, the source gives them in different places.

Assays:
[1] = test system: SARS-CoV-2 (USA-WA1/2020); assay: microbe, parasite or virus in culture; format: cell-based; details: for SI (selectivity index=CC50/EC50): CC50/EC50, against the SARS-CoV-2 strain
in vitro = details: African green monkey
[2] = Severe acute respiratory syndrome coronavirus 2, Vero C1008, 32 h, read-out: EC50
[3] = Severe acute respiratory syndrome coronavirus 2, Vero C1008, 32 h, read-out: EC90
[4] = Severe acute respiratory syndrome coronavirus 2, Vero C1008, against the SARS-CoV-2 strain, read-out: EC90 value

In the case of `COC(=O)c1cccc(CNCc2cccc(-c3csc(-c4nc5ccccc5[nH]4)c3)c2)c1` [Compound 1, methyl 3-(((3-(5-(1H-benzo[d]imidazol-2-yl)thiophen-3-yl)benzyl)amino)methyl)benzoate], the “SI (selectivity index=CC50/EC50)” value [1] is reported as over 5.30, the EC50 [1, 2] is reported as 5.66 µM and the EC90 [1, 3] is reported as 9.5 µM. The CC50 (in vitro) was over 30 µM.

In the case of `CNC(=O)c1cccc(CNCc2cccc(-c3csc(-c4nc5ccccc5[nH]4)c3)c2)c1` [Compound 2, 3-(((3-(5-(1H-benzo[d]imidazol-2-yl)thiophen-3-yl)benzyl)amino)methyl)-N-methylbenzamide], the “SI (selectivity index=CC50/EC50)” value [1] is reported as over 4.04, the EC50 [1, 2] is reported as 7.43 µM and the EC90 [1, 3] is reported as 13.1 µM. It also gave a CC50 (in vitro) of over 30 µM.

In the case of `COC(=O)c1cccc(CNC(=O)c2cccc(-c3csc(-c4nc5ccccc5[nH]4)c3)c2)c1` [Compound 3, methyl 3-((3-(5-(1H-benzo[d]imidazol-2-yl)thiophen-3-yl)benzamido)methyl)benzoate], the “SI (selectivity index=CC50/EC50)” value [1] is reported as over 4.00, the EC50 [1, 2] is reported as 7.5 µM and the EC90 [1, 3] is reported as 12.6 µM. It also gave a CC50 (in vitro) of over 30 µM.

For `CCOc1cc(CN2CCC(C(=O)Nc3cccc(-c4cccc(F)c4)c3)CC2)ccc1O` [Compound 4, 1-(3-ethoxy-4-hydroxybenzyl)-N-(3′-fluoro-[1,1′-biphenyl]-3-yl)piperidine-4-carboxamide], the “SI (selectivity index=CC50/EC50)” value [1] was over 4.92, the EC50 [1, 2] was 6.1 µM and the EC90 [1, 3] was 10.1 µM. For the same compound, the CC50 (in vitro) was over 30 µM.

In the case of `CCOc1cc(CN2CCC(C(=O)Nc3cccc(-c4cccc(C(F)(F)F)c4)c3)CC2)ccc1O` [Compound 5, 1-(3-ethoxy-4-hydroxybenzyl)-N-(3′-(trifluoromethyl)-[1,1′-biphenyl]-3-yl)piperidine-4-carboxamide], the “SI (selectivity index=CC50/EC50)” value [1] is reported as 3.20, the EC50 [1, 2] is reported as 4.91 µM and the EC90 [1, 3] is reported as 7.47 µM. The CC50 (in vitro) was 15.6 µM.

For `CCOc1cc(CN2CCC(C(=O)Nc3cccc(-c4cccc(OC)c4)c3)CC2)ccc1O` [Compound 6, 1-(3-ethoxy-4-hydroxybenzyl)-N-(3′-methoxy-[1,1′-biphenyl]-3-yl)piperidine-4-carboxamide], the “SI (selectivity index=CC50/EC50)” value [1] was 3.70, the EC50 [1, 2] was 7.16 µM and the EC90 [1, 3] was 11.5 µM. It also gave a CC50 (in vitro) of 26.3 µM.

With `O=C(Nc1cccc(-c2cccc(Cl)c2)c1)C1CCN(Cc2ccc(O)cc2)CC1` [Compound 7, N-(3′-chloro-[1,1′-biphenyl]-3-yl)-1-(4-hydroxybenzyl)piperidine-4-carboxamide] the “SI (selectivity index=CC50/EC50)” value [1] was 3.36, the EC50 [1, 2] was 6.4 µM and the EC90 [1, 3] was 11 µM. The CC50 (in vitro) was 21 µM.

With `COc1ccc(CN2CCC(C(=O)Nc3cccc(-c4cccc(Cl)c4)c3)CC2)cc1O` [Compound 8, N-(3′-chloro-[1,1′-biphenyl]-3-yl)-1-(3-hydroxy-4-methoxybenzyl)piperidine-4-carboxamide] the “SI (selectivity index=CC50/EC50)” value [1] was 2.48, the EC50 [1, 2] was 6.9 µM and the EC90 [1, 3] was 11.7 µM. It also gave a CC50 (in vitro) of 17 µM.

With `CCOc1cc(CN2CCC(C(=O)Nc3cccc(-c4cccc(Cl)c4)c3)CC2)ccc1O` [Compound 9, N-(3′-chloro-[1,1′-biphenyl]-3-yl)-1-(3-ethoxy-4-hydroxybenzyl)piperidine-4-carboxamide] the “SI (selectivity index=CC50/EC50)” value [1] was 2.80, the EC50 [1, 2] was 5.8 µM and the EC90 [1, 3] was 8.9 µM. The CC50 (in vitro) was 16 µM.

In the case of `CCOc1cc(CN2CCC(C(=O)Nc3cccc(-c4ccc(Cl)cc4)c3)CC2)ccc1O` [Compound 10, N-(4′-chloro-[1,1′-biphenyl]-3-yl)-1-(3-ethoxy-4-hydroxybenzyl)piperidine-4-carboxamide], the “SI (selectivity index=CC50/EC50)” value [1] is reported as 2.65, the EC50 [1, 2] is reported as 6.2 µM and the EC90 [1, 3] is reported as 9.1 µM. For the same compound, the CC50 (in vitro) was 16 µM.

Compound `COc1cc(C(=O)OCCCN2CCCN(CCCOC(=O)c3cc(OC)c(OC)c(OC)c3)CC2)cc(OC)c1OC` [Dilazep, 3-[4-[3-(3,4,5-trimethoxybenzoyl)oxypropyl]-1,4-diazepan-1-yl]propyl 3,4,5-trimethoxybenzoate, reference compound] has an EC50 ([1]; Severe acute respiratory syndrome coronavirus 2, Vero C1008, against the SARS-CoV-2 strain, read-out: EC50 value) of 3.89 µM, an EC90 [1, 4] of 19.8 µM and a CC50 (in vitro) of over 30 µM.

For `O=C(NC1CCN(CCCCC2(C(=O)NCC(F)(F)F)c3ccccc3-c3ccccc32)CC1)c1ccccc1-c1ccc(C(F)(F)F)cc1` [N-(2,2,2-trifluoroethyl)-9-(4-(4-(4′-(trifluoromethyl)-[1,1′-biphenyl]-2-carboxamido)piperidin-1-yl)butyl)-9H-fluorene-9-carboxamide, reference compound], the “SI (selectivity index=CC50/EC50)” value [1] was 5.92, the EC50 ([1]; Severe acute respiratory syndrome coronavirus 2, Vero C1008, against the SARS-CoV-2 strain, unit inferred, read-out: EC50 value) was 1.61 µM and the EC90 [1, 4] was 2.83 µM. It also gave a CC50 (in vitro) of 9.56 µM.
